Measurements: ChEMBL document CHEMBL1201862, “PubChem BioAssay data set” (2004)
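A five-concentration, 48-hour dose response in 96-well plates underlies each endpoint, interpolated linearly between surrounding concentrations. Here, GI50 denotes the concentration required for 50% inhibition of growth.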 Active and inactive are the calls of the source. Rule as the data show it: active = GI50 up to about 1.1 µM and inactive = higher.

Key:
Experiment in all cases: inhibition of tumour cell growth, NCI panel, 48 h
TK-10 = system: TK-10
COLO 205 = system: COLO 205
NCI-H460 = system: NCI-H460
NCI-H522 = system: NCI-H522
KM12 = system: KM12
LOX IMVI = system: LOX IMVI
Malme-3M = system: Malme-3M
BT-549 = system: BT-549
T47D = system: T47D
MDA-MB-435 = system: MDA-MB-435
MDA-N = system: MDA-N
MDA-MB-231 = system: MDA-MB-231
DU-145 = system: DU-145
M14 = system: M14
HT-29 = system: HT-29
Hs-578T = system: Hs-578T
OVCAR-8 = system: OVCAR-8
MCF7 = system: MCF7
HCT-116 = system: HCT-116
CCRF-CEM = system: CCRF-CEM

SMILES | GI50 (TK-10) | GI50 (COLO 205) | GI50 (NCI-H460) | GI50 (NCI-H522) | GI50 (KM12) | GI50 (LOX IMVI) | GI50 (Malme-3M) | GI50 (BT-549) | GI50 (T47D) | GI50 (MDA-MB-435) | GI50 (MDA-N) | GI50 (MDA-MB-231) | GI50 (DU-145) | GI50 (M14) | GI50 (HT-29) | GI50 (Hs-578T) | GI50 (OVCAR-8) | GI50 (MCF7) | GI50 (HCT-116) | GI50 (CCRF-CEM)
Nc1ccc(Cc2ccc(/N=C\c3ccc(OCc4cccc(COc5ccc(/C=N\c6ccc(Cc7ccc(N)cc7)cc6)cc5)n4)cc3)cc2)cc1 | 81.3 µM (inactive) | > 100 µM (inactive) | > 100 µM (inactive) | > 100 µM (inactive) | > 100 µM (inactive) | > 100 µM (inactive) | 63.1 µM (inactive) | > 100 µM (inactive) | 68.9 µM (inactive) | > 100 µM (inactive) | > 100 µM (inactive) | 27 µM (inactive) | > 100 µM (inactive) | > 100 µM (inactive) | > 100 µM (inactive) | 65.6 µM (inactive) | 62.8 µM (inactive) | > 100 µM (inactive) | > 100 µM (inactive) | > 100 µM (inactive)
Oc1c2c(c(O)c3ccccc13)C1(N=N2)c2ccccc2Oc2ccccc21 | 6.98 µM (inactive) | 13 µM (inactive) | 18.5 µM (inactive) | 1.98 µM (inactive) | 15.4 µM (inactive) | 2.38 µM (inactive) | 2.48 µM (inactive) | 10.7 µM (inactive) | 7.55 µM (inactive) | 4.38 µM (inactive) | 6.58 µM (inactive) | 13.9 µM (inactive) | 8.73 µM (inactive) | 8.38 µM (inactive) | 6.11 µM (inactive) | 5.56 µM (inactive) | 3.2 µM (inactive) | 3.09 µM (inactive) | 3.17 µM (inactive) | 3.2 µM (inactive)
COc1ccc(C(=O)NC2=C(Cl)C(=O)c3ccccc3C2=O)cc1 | 3.22 µM (inactive) | 1.89 µM (inactive) | 3.1 µM (inactive) | 0.416 µM (active) | 1.07 µM (active) | 2.3 µM (inactive) | 1.48 µM (inactive) | 2.02 µM (inactive) | 0.929 µM (active) | 2.22 µM (inactive) | 2.75 µM (inactive) | 2.36 µM (inactive) | 3.86 µM (inactive) | 1.05 µM (active) | 4.41 µM (inactive) | 3.08 µM (inactive) | 3.32 µM (inactive) | 2.75 µM (inactive) | 0.406 µM (active) | 3.23 µM (inactive)
CC(=O)O[C@H]1CC[C@@]2(C)C(=CC[C@@H]3[C@@H]2CC[C@]2(C)c4nc(N)c(C#N)cc4C[C@@H]32)C1 | 27.2 µM (inactive) | 20.2 µM (inactive) | 19.8 µM (inactive) | 12.6 µM (inactive) | 55.1 µM (inactive) | 32.2 µM (inactive) | 41.5 µM (inactive) | 33.3 µM (inactive) | 11.4 µM (inactive) | 33.7 µM (inactive) | 29 µM (inactive) | 44.2 µM (inactive) | 40.7 µM (inactive) | > 87.5 µM (inactive) | 9.82 µM (inactive) | 24.9 µM (inactive) | 30.3 µM (inactive) | 33.6 µM (inactive) | 18.2 µM (inactive) | 14 µM (inactive)
COC(=O)c1c(C)cccc1C1CN=NC12Cc1c(C)cccc1C2=O (stereo not given) | > 100 µM (inactive) | 55.5 µM (inactive) | 97.3 µM (inactive) | 24.9 µM (inactive) | 46.6 µM (inactive) | 50.9 µM (inactive) | 91.4 µM (inactive) | > 100 µM (inactive) | 37.9 µM (inactive) | 39.8 µM (inactive) | > 100 µM (inactive) | 82.8 µM (inactive) | > 100 µM (inactive) | 83.2 µM (inactive) | 90.2 µM (inactive) | 80.2 µM (inactive) | 44.7 µM (inactive) | 55.2 µM (inactive) | 68.7 µM (inactive) | > 100 µM (inactive)
COc1ccc(Cc2nc3cc(C(F)(F)F)ccc3n2C[C@@H]2CCCN3CCCCC23)cc1 (stereo not given in full) | 9.1 µM (inactive) | 5.36 µM (inactive) | 13.6 µM (inactive) | 7 µM (inactive) | 13.5 µM (inactive) | 10.5 µM (inactive) | 3.18 µM (inactive) | 13.8 µM (inactive) | 6.04 µM (inactive) | 12.2 µM (inactive) | 4.59 µM (inactive) | 11 µM (inactive) | 11 µM (inactive) | 2.72 µM (inactive) | 5.06 µM (inactive) | 19.9 µM (inactive) | 15.3 µM (inactive) | 8.34 µM (inactive) | 5.58 µM (inactive) | 11.1 µM (inactive)
CCOS(=O)(=O)c1ccc(-c2c3nc(c(-c4ccc(S(=O)(=O)OCC)cc4)c4ccc([nH]4)c(-c4ccc(S(=O)(=O)OCC)cc4)c4nc(c(-c5ccc(S(=O)(=O)OCC)cc5)c5ccc2[nH]5)C=C4)C=C3)cc1 | > 31.6 µM (inactive) | > 31.6 µM (inactive) | > 31.6 µM (inactive) | 10.5 µM (inactive) | > 31.6 µM (inactive) | > 10 µM (inactive) | 17.7 µM (inactive) | > 31.6 µM (inactive) | > 31.6 µM (inactive) | > 31.6 µM (inactive) | > 31.6 µM (inactive) | > 31.6 µM (inactive) | > 31.6 µM (inactive) | > 31.6 µM (inactive) | > 100 µM (inactive) | > 31.6 µM (inactive) | > 31.6 µM (inactive) | > 31.6 µM (inactive) | > 31.6 µM (inactive) | > 31.6 µM (inactive)
COc1cc2cc(C(=O)N3C[C@H](CCl)c4c3cc(O)c3ccccc43)[nH]c2c(OC)c1OC | 0.277 µM (active) | 1.32 µM (inactive) | 0.042 µM (active) | 0.108 µM (active) | 0.213 µM (active) | 0.101 µM (active) | 0.152 µM (active) | 0.236 µM (active) | 1.71 µM (inactive) | 0.222 µM (active) | 1.29 µM (inactive) | 1.69 µM (inactive) | 0.628 µM (active) | 0.159 µM (active) | 0.185 µM (active) | 0.234 µM (active) | 0.0942 µM (active) | 0.0335 µM (active) | 0.147 µM (active) | 0.207 µM (active)
CC(=O)Nn1c(Cc2ccc(Cl)cc2)nn(C)c1=O | > 100 µM (inactive) | > 100 µM (inactive) | > 100 µM (inactive) | > 100 µM (inactive) | > 100 µM (inactive) | > 100 µM (inactive) | > 100 µM (inactive) | > 100 µM (inactive) | > 100 µM (inactive) | > 100 µM (inactive) | > 100 µM (inactive) | > 100 µM (inactive) | > 100 µM (inactive) | > 100 µM (inactive) | > 100 µM (inactive) | > 100 µM (inactive) | > 100 µM (inactive) | > 100 µM (inactive) | > 100 µM (inactive) | > 100 µM (inactive)
CNC(=O)N(CCC#N)CCN(C(=O)N(C)C)c1ccccc1 | > 100 µM (inactive) | > 100 µM (inactive) | > 100 µM (inactive) | > 100 µM (inactive) | > 100 µM (inactive) | > 100 µM (inactive) | > 100 µM (inactive) | > 100 µM (inactive) | > 100 µM (inactive) | > 100 µM (inactive) | > 100 µM (inactive) | > 100 µM (inactive) | > 100 µM (inactive) | > 100 µM (inactive) | > 100 µM (inactive) | > 100 µM (inactive) | > 100 µM (inactive) | > 100 µM (inactive) | > 100 µM (inactive) | > 100 µM (inactive)
c1ccc([P+](CCCCCCCC[P+](c2ccccc2)(c2ccccc2)c2ccccc2)(c2ccccc2)c2ccccc2)cc1 | 18 µM (inactive) | 0.91 µM (active) | 3.25 µM (inactive) | 1.8 µM (inactive) | 1.52 µM (inactive) | 4.2 µM (inactive) | 16.4 µM (inactive) | 1.99 µM (inactive) | 5.16 µM (inactive) | 4.92 µM (inactive) | 6.89 µM (inactive) | 7.13 µM (inactive) | 30 µM (inactive) | 35.6 µM (inactive) | 2.04 µM (inactive) | 2.06 µM (inactive) | 4.4 µM (inactive) | 4.48 µM (inactive) | 1.87 µM (inactive) | 9.23 µM (inactive)
COc1ccccc1-c1cc(O)c2cccnc2n1 | > 100 µM (inactive) | 24.8 µM (inactive) | 39.4 µM (inactive) | 46.9 µM (inactive) | 35.6 µM (inactive) | 33 µM (inactive) | 37.8 µM (inactive) | 22.2 µM (inactive) | 69.7 µM (inactive) | 23.4 µM (inactive) | 20 µM (inactive) | 52.6 µM (inactive) | > 100 µM (inactive) | 38.4 µM (inactive) | 23.4 µM (inactive) | 61 µM (inactive) | 37.7 µM (inactive) | 6.59 µM (inactive) | 27.5 µM (inactive) | 22.9 µM (inactive)
COc1cc2c3c(n(C)c(=O)c2cc1OC)-c1cc2c(cc1C3=O)OCO2 | > 100 µM (inactive) | > 100 µM (inactive) | 0.596 µM (active) | 1.46 µM (inactive) | > 100 µM (inactive) | 8.59 µM (inactive) | 67.5 µM (inactive) | > 86.9 µM (inactive) | 6.64 µM (inactive) | 90.6 µM (inactive) | 41.6 µM (inactive) | > 57.1 µM (inactive) | 12 µM (inactive) | 9.91 µM (inactive) | 46.5 µM (inactive) | > 80 µM (inactive) | 38.4 µM (inactive) | 1.23 µM (inactive) | 6.35 µM (inactive) | 0.237 µM (active)
